This assay concerns BPH1, PNT1A, LNCaP, 22rv1, PC3 and DU145 cell lines. Description: 5-aza-dC treatment, RNA extraction and RT-qPCR. Format: cell-based, human. Particulars: prostatic cell lines, 1 μM 5-aza-dC for two days, five day recovery; when methylation was reduced, not when DNA methylation levels were unaffected. The procedure:
BPH1, PNT1A, LNCaP, 22rv1, PC3 and DU145 cell lines at >50% confluence were treated with 1 μM freshly prepared 5-aza-2′-deoxycytidine (5-aza-dC) in 50% acetic acid (Sigma, cat. no.: A3656) for two days. After a five day recovery period, DNA was purified as described above. RNA was purified using the RNeasy Mini kit from Qiagen and stored at −80° C. One μg RNA was reverse transcribed using 100 pmol oligo-dT(24) primer and the SuperScript II Reverse Transcriptase kit (Invitrogen). Taqman® gene expression assays: AOX1 (Hs01565232_m1), C1orf114 (Hs00982321_g1), GAS6 (Hs01090305_m1), and HAPLN3 (Hs00820260_m1) were used with Taqman Mastermix no UNG. UBC was used for normalization (primers: 5′-GATTTGGGTCGCGGTTCTT-3′ and 5′-[…]-3′ used with Power Sybr Green Mastermix). Assays were run twice in triplicate in 10 μL reactions. Reactions were mixed and run as described for qMSP assays.
Background: Quantitative PCR measures a nucleic acid by following its amplification.

This is an account of results in US10106854B2, “Biomarkers for prostate cancer” (Aarhus Universitet, priority 2012, dated 2018).

Turning to `Nc1ncn([C@H]2C[C@H](O)[C@@H](CO)O2)c(=O)n1` [5-aza-dC, 5-aza-2′-deoxycytidine], the “RNA expression from DNA hypermethylated genes” value was “generally stimulated RNA expression”.
